# Data reported in patent US4874751A, “Antibacterial treatment” (priority 1985, dated 1989).
# Legend:
# [1] = LD50 in mice
# [2] = LD50 in rats
structure (smiles),measurement,setting,value
Cc1cn([C@H]2C[C@H](N=[N+]=[N-])[C@@H](CO)O2)c(=O)[nH]c1=O,LD50,[1],greater than 750 mg/kg
same,LD50,[2],greater than 750 mg/kg
